# Patent publication US5795885A, “Method of inhibiting profileration of cells by administering an aminosterol compound” (priority 1995, dated 1998)
# Columns and labels:
# P. aerug = assay: antibiotic activity (MIC); assay type: cell-based
# [1] = test system: stage 59-60 Xenopus tadpoles; details: for tadpole response similar to FX 3 / tadpole response similar to compound 1436 / tadpole response similar to compound 1437 / tadpole response similar to Fraction 1: tadpole assay
# [2] = test system: chick embryo vitelline capillaries; assay: chick embryo vitelline capillary regression assay; assay type: in vivo; design: key to vitelline capillary regression: +: Vascular reactivity; 0: No vascular reactivity; +/-: Equivocal reactivity; details: for vitelline capillary regression: 60 minutes
# Experimental: Using the chick embryo vitelline capillaries assay, compounds were tested for their ability to induce capillary regression. Each compound was applied in 0.1 ml of 15% Ficol 400 and PBS onto the embryo, and vascular regression was assessed after 60 minutes.
# The 3-day chick embryo consists of an embryonic disc from which numerous vessels emerge and return, forming a "figure 8"-shaped structure--the embryo in the center with vascular loops extending outward over both poles. […] Following a lag period of around 15 minutes, the constriction of continuity between capillary and secondary vessels, generally on the "venous" side, was observed. Continued pulsatile blood flow progressed, resulting in a "swelling" of the blind tube, followed by a pinching off of the remaining connection and formation of an enclosed vascular sac resembling a "blood island." This process progressed until only the largest vessels remained intact.
compound,measurement,setting,value
CC(C)CCC[C@@H](C)[C@H]1CC[C@H]2[C@@H]3CC[C@H]4C[C@H](NCCCCN)CC[C@]4(C)[C@H]3CC[C@]12C,MIC,P. aerug,> 256 µg/mL
CC(C)CCC[C@@H](C)[C@H]1CC[C@H]2[C@@H]3CC[C@H]4C[C@@H](NCCCCN)CC[C@]4(C)[C@H]3CC[C@]12C,MIC,P. aerug,> 256 µg/mL
CC(COS(=O)(=O)O)C(=O)CC[C@@H](C)[C@H]1CC[C@H]2[C@@H]3[C@H](O)C[C@H]4C[C@@H](NCCCNCCCCN)CC[C@]4(C)[C@H]3CC[C@]12C (some centres unmarked),MIC,P. aerug,128 µg/mL
CC(C)CCCC(C)[C@H]1CCC2C3C(CC[C@@]21C)[C@@]1(C)CC[C@H](N)C[C@@H]1C[C@H]3O (some centres unmarked),MIC,P. aerug,> 256 µg/mL
CC(C)CCCC(C)[C@H]1CCC2C3C(CC[C@@]21C)[C@@]1(C)CC[C@@H](NCCCNCCCCN)C[C@@H]1C[C@H]3O (some centres unmarked),MIC,P. aerug,64 µg/mL
CC(C)CCCC(C)[C@H]1CCC2C3C(CC[C@@]21C)[C@@]1(C)CC[C@H](NCCCNCCCCN)C[C@@H]1C[C@H]3O (some centres unmarked),MIC,P. aerug,64 µg/mL
COC(=O)CCC(C)[C@H]1CCC2C3C(CC[C@@]21C)[C@@]1(C)CC[C@H](NCCN)C[C@H]1C[C@H]3O (some centres unmarked),MIC,P. aerug,128 µg/mL
COC(=O)CCC(C)[C@H]1CCC2C3C(CC[C@@]21C)[C@@]1(C)CC[C@H](NCCCNCCCCNCCCN)C[C@H]1C[C@H]3O (some centres unmarked),MIC,P. aerug,64 µg/mL
CC(CCC(=O)O)[C@H]1CCC2C3C(CC[C@@]21C)[C@@]1(C)CC[C@@H](NCCCNCCCCNCCCN)C[C@H]1C[C@H]3O (some centres unmarked),MIC,P. aerug,8 µg/mL
CC(CCC(=O)O)[C@H]1CCC2C3C(CC[C@@]21C)[C@@]1(C)CC[C@@H](NCCN)C[C@H]1C[C@H]3O (some centres unmarked),MIC,P. aerug,64 µg/mL
CC(CCC(=O)O)[C@H]1CCC2C3C(CC[C@@]21C)[C@@]1(C)CC[C@H](NCCN)C[C@H]1C[C@H]3O (some centres unmarked),MIC,P. aerug,256 µg/mL
COC(=O)CCC(C)[C@H]1CCC2C3CC[C@@H]4C[C@H](NCCN)CC[C@]4(C)C3C[C@H](O)[C@@]21C (some centres unmarked),MIC,P. aerug,16 to 32 µg/mL
CC(CCC(=O)O)[C@H]1CCC2C3CC[C@@H]4C[C@H](NCCN)CC[C@]4(C)C3C[C@H](O)[C@@]21C (some centres unmarked),MIC,P. aerug,128 µg/mL
COC(=O)CCC(C)[C@H]1CCC2C3C[C@@H](O)[C@H]4C[C@@H](NCCN)CC[C@]4(C)C3CC[C@@]21C (some centres unmarked),MIC,P. aerug,64 µg/mL
CC(CCC(=O)O)[C@H]1CCC2C3C[C@@H](O)[C@H]4C[C@@H](NCCN)CC[C@]4(C)C3CC[C@@]21C (some centres unmarked),MIC,P. aerug,128 µg/mL
COC(=O)CCC(C)[C@H]1CCC2C3CC[C@@H]4C[C@H](NCCCNCCCCNCCCN)CC[C@]4(C)C3C[C@H](O)[C@@]21C (some centres unmarked),MIC,P. aerug,8 µg/mL
CC(CCC(=O)O)[C@H]1CCC2C3CC[C@@H]4C[C@H](NCCCNCCCCNCCCN)CC[C@]4(C)C3C[C@H](O)[C@@]21C (some centres unmarked),MIC,P. aerug,4 µg/mL
COC(=O)CCC(C)[C@H]1CCC2C3CC[C@H]4C[C@@H](NCCCNCCCCNCCCN)CC[C@]4(C)C3CC[C@@]21C (some centres unmarked),MIC,P. aerug,64 µg/mL
CC(C)C(CCC(C)C1CCC2C3C(O)CC4CC(NCCCNCCCCN)CCC4(C)C3CCC12C)OS(=O)(=O)O (centres unmarked),Tadpole: GI (gastrointestinal),[1]; 10 μg/mL,-
same,Tadpole: M (melanocytes),[1]; 10 μg/mL,-
same,Tadpole: Mus (muscle),[1]; 10 μg/mL,-
same,Tadpole: V (vascular),[1]; 10 μg/mL,+
CC(C)C(CCC(C)C1CCC2C3C(O)CC4CC(NCCCNCCCCNCCCN)CCC4(C)C3CCC12C)OS(=O)(=O)O (centres unmarked),Tadpole: E (epithelial),[1]; 10 μg/mL,±
same,Tadpole: M (melanocytes),[1]; 10 μg/mL,+
same,Tadpole: Mus (muscle),[1]; 10 μg/mL,-
same,Tadpole: V (vascular),[1]; 10 μg/mL,+
CC(C)CCC[C@@H](C)[C@H]1CC[C@H]2[C@@H]3CC[C@H]4C[C@@H](NCCCNCCCCN)CC[C@]4(C)[C@H]3CC[C@]12C [Compound 303],vitelline capillary regression,[2]; 1 μg applied,0
C[C@H](CCC(=O)O)[C@H]1CC[C@H]2[C@@H]3CC[C@H]4C[C@H](NCCCNCCCCN)CC[C@]4(C)[C@H]3CC[C@]12C [Compound 318],vitelline capillary regression,[2]; 1 μg applied,0
CC(C)CCC[C@@H](C)[C@H]1CC[C@H]2[C@@H]3[C@H](O)C[C@H]4C[C@H](NCCCNCCCCN)CC[C@]4(C)[C@H]3CC[C@]12C [Compound 370],tadpole response similar to FX 3,[1],exhibiting pharmacologic activity similar to that seen for FX 3
CC(C)CCC[C@@H](C)[C@H]1CC[C@H]2[C@@H]3[C@H](O)C[C@H]4C[C@@H](NCCCNCCCCN)CC[C@]4(C)[C@H]3CC[C@]12C [Compound 371],tadpole response similar to compound 1436,[1],produce effects like those produced by compound 1436
same,vitelline capillary regression,[2]; 0.001 μg applied,0
same,vitelline capillary regression,[2]; 0.01 μg applied,0
same,vitelline capillary regression,[2]; 0.1 μg applied,0
same,vitelline capillary regression,[2]; 1 μg applied,+/-
same,vitelline capillary regression,[2]; 10 μg applied,+
C[C@H](CCC(=O)O)[C@H]1CC[C@H]2[C@@H]3[C@H](O)C[C@H]4C[C@@H](NCCCNCCCCN)CC[C@]4(C)[C@H]3CC[C@]12C [Compound 381],vitelline capillary regression,[2]; 1 μg applied,0
C[C@H](CCC(=O)O)[C@H]1CC[C@H]2[C@@H]3[C@H](O)C[C@H]4C[C@H](NCCCNCCCCN)CC[C@]4(C)[C@H]3CC[C@]12C [Compound 382],vitelline capillary regression,[2]; 0.001 μg applied,0
same,vitelline capillary regression,[2]; 0.01 μg applied,0
same,vitelline capillary regression,[2]; 0.1 μg applied,0
same,vitelline capillary regression,[2]; 1 μg applied,+
same,vitelline capillary regression,[2]; 10 μg applied,+
COC(=O)CC[C@@H](C)[C@H]1CC[C@H]2[C@@H]3[C@H](O)C[C@H]4C[C@@H](NCCCNCCCCNCCCN)CC[C@]4(C)[C@H]3CC[C@]12C [Compound 396],vitelline capillary regression,[2]; 1 μg applied,+
COC(=O)CC[C@@H](C)[C@H]1CC[C@H]2[C@@H]3[C@H](O)C[C@@H]4C[C@@H](NCCN)CC[C@]4(C)[C@H]3CC[C@]12C [Compound 409],tadpole response similar to compound 1437,[1],functionally similar to compound 1437
same,vitelline capillary regression,[2]; 1 μg applied,0
COC(=O)CC[C@@H](C)[C@H]1CC[C@H]2[C@@H]3[C@H](O)C[C@@H]4C[C@H](NCCN)CC[C@]4(C)[C@H]3CC[C@]12C [Compound 410],tadpole response similar to compound 1437,[1],functionally similar to compound 1437
same,vitelline capillary regression,[2]; 0.001 μg applied,0
same,vitelline capillary regression,[2]; 0.01 μg applied,+/-
same,vitelline capillary regression,[2]; 0.1 μg applied,+/-
same,vitelline capillary regression,[2]; 1 μg applied,+
C[C@H](CCC(=O)O)[C@H]1CC[C@H]2[C@@H]3[C@H](O)C[C@@H]4C[C@H](NCCCNCCCCNCCCN)CC[C@]4(C)[C@H]3CC[C@]12C [Compound 412],tadpole response similar to FX 3,[1],exhibiting pharmacologic activity similar to that seen for FX 3
same,vitelline capillary regression,[2]; 0.001 μg applied,0
same,vitelline capillary regression,[2]; 0.01 μg applied,0
same,vitelline capillary regression,[2]; 0.1 μg applied,0
same,vitelline capillary regression,[2]; 1 μg applied,+
C[C@H](CCC(=O)O)[C@H]1CC[C@H]2[C@@H]3[C@H](O)C[C@@H]4C[C@@H](NCCCNCCCCNCCCN)CC[C@]4(C)[C@H]3CC[C@]12C [Compound 413],tadpole response similar to compound 1436,[1],produce effects like those produced by compound 1436
same,vitelline capillary regression,[2]; 1 μg applied,0
C[C@H](CCC(=O)O)[C@H]1CC[C@H]2[C@@H]3[C@H](O)C[C@@H]4C[C@H](NCCN)CC[C@]4(C)[C@H]3CC[C@]12C [Compound 414],tadpole response similar to Fraction 1,[1],pharmacologic activity similar to Fraction 1
same,vitelline capillary regression,[2]; 1 μg applied,0
C[C@H](CCC(=O)O)[C@H]1CC[C@H]2[C@@H]3[C@H](O)C[C@@H]4C[C@@H](NCCN)CC[C@]4(C)[C@H]3CC[C@]12C [Compound 415],vitelline capillary regression,[2]; 0.001 μg applied,0
same,vitelline capillary regression,[2]; 0.01 μg applied,+
same,vitelline capillary regression,[2]; 0.1 μg applied,+
same,vitelline capillary regression,[2]; 1 μg applied,+
same,activity in vitelline capillary regression assay (in words),[2]; in vivo,especially active
COC(=O)CC[C@@H](C)[C@H]1CC[C@H]2[C@@H]3CC[C@@H]4C[C@H](NCCN)CC[C@]4(C)[C@H]3C[C@H](O)[C@]12C [Compound 416],tadpole response similar to compound 1437,[1],functionally similar to compound 1437
COC(=O)CC[C@@H](C)[C@H]1CC[C@H]2[C@@H]3C[C@@H](O)[C@H]4C[C@H](NCCN)CC[C@]4(C)[C@H]3CC[C@]12C [Compound 431],tadpole response similar to compound 1437,[1],functionally similar to compound 1437
COC(=O)CC[C@@H](C)[C@H]1CC[C@H]2[C@@H]3C[C@@H](O)[C@H]4C[C@@H](NCCN)CC[C@]4(C)[C@H]3CC[C@]12C [Compound 432],tadpole response similar to compound 1437,[1],functionally similar to compound 1437
C[C@H](CCC(=O)O)[C@H]1CC[C@H]2[C@@H]3C[C@@H](O)[C@H]4C[C@@H](NCCN)CC[C@]4(C)[C@H]3CC[C@]12C [Compound 433],tadpole response similar to compound 1437,[1],functionally similar to compound 1437
COC(=O)CC[C@@H](C)[C@H]1CC[C@H]2[C@@H]3CC[C@H]4C[C@H](NCCCNCCCCNCCCN)CC[C@]4(C)[C@H]3CC[C@]12C [Compound 458],tadpole response similar to FX 3,[1],exhibiting pharmacologic activity similar to that seen for FX 3
COC(=O)CC[C@@H](C)[C@H]1CC[C@H]2[C@@H]3CC[C@H]4C[C@@H](NCCCNCCCCNCCCN)CC[C@]4(C)[C@H]3CC[C@]12C [Compound 459],tadpole response similar to FX 3,[1],exhibiting pharmacologic activity similar to that seen for FX 3
COC(=O)CC[C@@H](C)[C@H]1CC[C@H]2[C@@H]3C[C@@H](O)[C@H]4C[C@H](NCCCNCCCCNCCCN)CC[C@]4(C)[C@H]3CC[C@]12C [Compound 465],tadpole response similar to FX 3,[1],exhibiting pharmacologic activity similar to that seen for FX 3
COC(=O)CC[C@@H](C)[C@H]1CC[C@H]2[C@@H]3C[C@@H](O)[C@H]4C[C@@H](NCCCNCCCCNCCCN)CC[C@]4(C)[C@H]3CC[C@]12C [Compound 466],tadpole response similar to FX 3,[1],exhibiting pharmacologic activity similar to that seen for FX 3
CC(C)CCC[C@@H](C)[C@H]1CC[C@H]2[C@@H]3[C@H](O)C[C@H]4C[C@H](N)CC[C@]4(C)[C@H]3CC[C@]12C [Compound 1363],tadpole response similar to Fraction 1,[1],pharmacologic activity similar to Fraction 1
CC(C)CCC[C@@H](C)[C@H]1CC[C@H]2[C@@H]3[C@H](O)C[C@H]4C[C@@H](N)CC[C@]4(C)[C@H]3CC[C@]12C [Compound 1364],vitelline capillary regression,[2]; 0.001 μg applied,0
same,vitelline capillary regression,[2]; 0.01 μg applied,0
same,vitelline capillary regression,[2]; 0.1 μg applied,0
same,vitelline capillary regression,[2]; 1 μg applied,+
same,vitelline capillary regression,[2]; 10 μg applied,+
